Literature values as cited in patent publication US20040147522A1, “Compounds having both alpha7 nicotinic agonist activity and 5HT3 antagonist activity for the treatment of CNS diseases” (priority 2002, published 2004).

Legend:
5HT3R = target: T1, 5HT3R (Homo sapiens, UniProt P46098)
T1 sequence (P46098 24-478): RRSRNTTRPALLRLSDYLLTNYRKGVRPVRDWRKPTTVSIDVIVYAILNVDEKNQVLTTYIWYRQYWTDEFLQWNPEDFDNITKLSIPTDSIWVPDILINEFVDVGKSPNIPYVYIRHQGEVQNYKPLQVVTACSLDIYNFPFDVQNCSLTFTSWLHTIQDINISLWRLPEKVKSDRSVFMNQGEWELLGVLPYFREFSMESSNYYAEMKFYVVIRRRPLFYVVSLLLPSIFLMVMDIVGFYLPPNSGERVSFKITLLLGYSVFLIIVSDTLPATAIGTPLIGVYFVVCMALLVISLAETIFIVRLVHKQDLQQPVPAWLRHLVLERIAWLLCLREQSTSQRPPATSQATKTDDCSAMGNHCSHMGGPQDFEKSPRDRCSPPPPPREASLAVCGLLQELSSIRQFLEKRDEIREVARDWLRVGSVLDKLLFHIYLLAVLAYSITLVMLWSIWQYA

α7 nAChR = α7 nAChR (Homo sapiens, UniProt P36544)
Sequence of α7 nAChR (P36544 23-502): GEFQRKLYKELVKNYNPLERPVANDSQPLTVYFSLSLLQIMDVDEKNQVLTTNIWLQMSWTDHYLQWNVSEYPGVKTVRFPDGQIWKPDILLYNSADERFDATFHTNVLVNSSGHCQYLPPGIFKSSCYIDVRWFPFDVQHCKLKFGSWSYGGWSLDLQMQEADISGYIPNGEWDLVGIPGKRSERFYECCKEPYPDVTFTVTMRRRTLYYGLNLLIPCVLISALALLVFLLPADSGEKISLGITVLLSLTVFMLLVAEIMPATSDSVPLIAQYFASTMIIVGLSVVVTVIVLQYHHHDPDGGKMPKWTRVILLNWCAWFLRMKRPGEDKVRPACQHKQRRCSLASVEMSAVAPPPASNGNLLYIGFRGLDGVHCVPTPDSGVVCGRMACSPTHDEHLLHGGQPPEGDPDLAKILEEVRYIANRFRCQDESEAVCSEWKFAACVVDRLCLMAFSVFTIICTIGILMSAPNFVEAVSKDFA

COc1ccc(/C=C2\CCCN=C2c2cccnc2)c(OC)c1 [GTS-21]
activity at the 5HT3R (5HT3R): little activity

CN1[C@@H]2CC[C@H]1C[C@@H](OC(=O)c1c[nH]c3ccccc13)C2 [tropesitron]
α7 nicotinic agonist activity (α7 nAChR; reported by Macor et al. 2001): α7 nicotinic agonist activity

Cc1nccn1CC1CCc2c(c3ccccc3n2C)C1=O (stereo not drawn) [Ondansetron]
activity at the α7 nAChR (α7 nAChR): little activity
